In US20240299394A1, “TARGETED TREATMENT FOR SKIN FRAGILITY DISEASES” (University of Washington, priority 2023, published 2024):
Entries after “also recorded” stand apart in the source; their conditions may differ.

How the values were obtained:
NHEK monolayers [1] = experiment: Monolayer mechanical dissociation assay, SERCA2 inhibition with thapsigargin; type: cell-based, human; settings: 24 hours; for integrity of epithelial sheets despite SERCA2 inhibition: with 1 μM TG, 1 μM Tram, 10 μM U0126, 20 μM PD98059, 1 μM dabrafenib
Method: (§1) Dispase-based mechanical dissociation assays were carried out as described (Simpson C L, et al. Am J Pathol. 2010; 177(6): p. 2921-37). Keratinocytes were plated at a density of 1×10^6 cells per well of 6-well cell culture dishes. Upon reaching confluence, the calcium concentration of the medium was adjusted to 1.3 mM. Vehicle control (DMSO) or chemical inhibitors were added at the following concentrations: […] After 24 to 72 hours, monolayers were washed with PBS and then incubated with 500 μL dispase (5 U/ml) in Hank's balanced salt solution (Stemcell Technologies of Vancouver, CA, Cat. #07913) for 30 minutes at 37° C. Next, 4.5 ml PBS was added to the wells and all liquid plus released monolayers were transferred into 15 mL conical tubes, which were placed together in a rack and inverted 5-10 times to induce mechanical stress. Monolayer fragments were transferred back into 6-well cell culture plates and imaged with a 12-megapixel digital camera. Fragments were counted in Fiji.

[2] = tested on: organotypic cultures of NHEKs; experiment: Immunostaining of KRT10 and pERK in organotypic epidermis treated with TG; type: cell-based, human; settings: 1 μM TG, 48 hours
Method: Paraffin-embedded formalin-fixed tissue cross-sections on glass slides were incubated at 65° C. for 2 h. Sections were prepared for staining by immersion in 3 baths of xylenes (Thermo-Fisher) for 5 min each, followed by 3 baths of 95% ethanol for 5 min each, then 70% ethanol for 5 minutes, and finally 3 baths of PBS for 5 min each. Slides were then submerged in antigen retrieval solution [0.1 M sodium citrate (pH 6.0) with 0.05% (v/v) Tween-20] and heated to 95° C. for 15 min. Slides were allowed to cool to room temperature and then washed with PBS. Tissue sections were encircled with a hydrophobic barrier using a PAP pen. Tissue sections were incubated in blocking buffer [0.5% (w/v) BSA, 10% (v/v) NGS in PBS] for 30 minutes at 37° C. in a humidified chamber. […]
Fluorescence images of immunostained tissue sections were captured by SDC microscopy as above and analyzed using Fiji. Quantification of fluorescence intensity was performed in using non-visibly labeled images from immunostained tissue cross-sections. The Fiji “Measure” function was used to calculate the mean intensity of the fluorescence signal and the mean background fluorescence intensity, which was subtracted from each value. The net fluorescence intensity was averaged across multiple non-overlapping HPF and the values from control cultures were normalized to an average value of 1.

NHEKs = experiment: KRT10 immunostaining of TG-treated keratinocytes; type: cell-based, human; settings: 1 μM TG alone, 48 hours
Method: Keratinocytes were grown to confluence in 35 mm, glass-bottom cell culture dishes (MatTek of Ashland, MA, #P35G-1.5-20-C). For staining keratins and desmosomal proteins, cells were fixed in ice-cold 100% methanol at −20° C. for 2 minutes, allowed to dry, then re-hydrated in PBS. For staining other proteins, cells were fixed in 4% paraformaldehyde for 10 minutes at 37° C. Fixed cells were then incubated with blocking buffer [0.5% (w/v) bovine serum albumin (BSA, Sigma), 10% (w/v) normal goat serum (NGS, Sigma) in PBS] for 30 minutes at 37° C. Cells were then washed with PBS. Primary antibodies were diluted in 0.5% (w/v) BSA in PBS and incubated on the cells overnight at 4° C. Primary antibody dilutions were as follows: rabbit anti-SERCA2 (1:200), rabbit anti-cytokeratin 10 (1:2,000), mouse anti-Desmoglein 1 (1:100), mouse anti-Desmoglein 2 (1:100), mouse anti-Desmoglein 3 (1:100), mouse anti-Plakoglobin (1:100), rabbit anti-PERK1/2 (1:400), and mouse anti-ERK1/2 (1:400). Cells were washed three times with PBS, then incubated with species-specific secondary antibodies diluted at 1:300 (with or without Hoechst at 1:500) in 0.5% (w/v) BSA in PBS for 30 min at 37° C. […]
Fluorescence microscopy images were analyzed using Fiji software. Quantification of fluorescence intensity was performed in a blinded manner using non-visibly identifiable microscopy images. […]

[3] = tested on: organotypic epidermis grown from NHEKs; experiment: Histology (H&E) of organotypic epidermis treated with TG; type: cell-based, human
[4] = tested on: HET cells (SERCA2-depleted keratinocytes, THEKs); experiment: RT-qPCR of keratinocyte mRNA transcripts; type: cell-based, human; settings: HET cells in E-medium 24 hours; trametinib 1 μM, U0126 10 μM, PD184352 10 μM
Method: THEKs were seeded at a density of 1×10^6 cells per well of 6-well cell culture dishes in complete KSFM. Upon reaching confluence, KSFM was replaced with E-medium containing vehicle control (DMSO) or inhibitors at the following concentrations: Trametinib (1 μM), U0126 (10 μM), or PD184352 (10 μM). At the indicated time points, cell culture medium was removed and cells were washed once with PBS. RNA was extracted using the NucleoSpin RNA Plus Kit (Machery-Nagel of Duren, Germany) followed by reverse-transcription with the iScript cDNA synthesis kit (Bio-Rad of Hercules, CA) according to the manufacturer's instructions. Copy DNAs, also referred to as complementary DNAs (cDNAs) were diluted 5-fold and 2 μL of the resulting cDNAs were used for each 10 μL quantitative polymerase chain reaction (qPCR) assay. Real-time qPCR assays were carried out using the TaqMan Gene expression master mix (Applied Biosystems of Waltham, MA) according to the manufacturer's protocol. Pre-designed TaqMan probes from Thermo-Fisher were used for quantification of human Actb (Hs01060665_g1), Krt1 (Hs00196158_m1), Krt10 (Hs00166289_m1), Krt14 (Hs00265033_m1), Dsg1 (Hs00355084_m1), Alox12b (Hs00153961_m1), Alox15b (Hs00153988_m1), Ifi27 (Hs01086373_g1), Trpv3 (Hs00376854_m1), Trpv4 (Hs01099348_m1), or Notch1 (Hs01062014_m1). The housekeeping gene Actb was used as an endogenous control and mRNA fold changes were determined using the 2^(−ΔΔCt) method.

[5] = B-RAF inhibitor monotherapy for cancer (Carlos G, et al. 2015); cited from earlier work
NHEK monolayers [6] = experiment: Monolayer mechanical dissociation assay, B-RAF inhibitor model of Grover disease; type: cell-based, human; settings: co-treatment with Dab or Vem; trametinib 1 μM, U0126 10 μM, PD98059 20 μM; 24 h
Method: Dispase-based mechanical dissociation assays were carried out as described (70). Keratinocytes were plated at a density of 1×10^6 cells per well of 6-well cell culture dishes. Upon reaching confluence, the cells were switched into E-medium. Vehicle control (DMSO) or chemical inhibitors were added at the following concentrations: Dabrafenib (1 μM), vemurafenib (10 μM) trametinib (1 μM), U0126 (10 μM), or PD98059 (20 μM). After 24 h, monolayers were washed with PBS and then incubated with 500 μL dispase (5 U/ml) in Hank's balanced salt solution (Stemcell Technologies of Vancouver, Canada, Cat. #07913) for 30 minutes at 37° C. Next, 4.5 mL PBS was added to the wells and all liquid plus released monolayers were transferred into 15 mL conical tubes, which were placed together in a rack and inverted 1-10 times to induce mechanical stress. Monolayer fragments were transferred back into 6-well cell culture plates and imaged with a 12-megapixel digital camera. Fragments were counted in Fiji.

[7] = tested on: HET or KO keratinocyte sheets; experiment: Monolayer mechanical dissociation assay, SERCA2-deficient keratinocytes; type: cell-based, human; settings: HET or KO monolayers; trametinib 1 μM 48 hours; PD98059 20 μM 24 hours
Method: as §1

SMILES	DSG1 mRNA expression [4]	KRT1 mRNA expression [4]	KRT10 mRNA expression [4]	KRT14 mRNA levels [4]	integrity of epithelial sheets despite SERCA2 inhibition (NHEK monolayers [1])	integrity of keratinocyte sheets despite B-RAF inhibition (NHEK monolayers [6])	also measured
C/C=C(/C)C(=O)O[C@H]1C(C)=C2[C@H]([C@@H]1OC(=O)CCCCCCC)[C@@](C)(OC(C)=O)C[C@H](OC(=O)CCC)[C@@]1(O)[C@H]2OC(=O)[C@@]1(C)O [TG, thapsigargin]							epithelial sheet fragmentation (NHEK monolayers [1]; 1 μM TG alone): significant increase in epithelial sheet fragmentation; also recorded: readily fragmented; KRT10 immunostaining in organotypic epidermis [2]: reduction in KRT10; pERK (ERK activation) in organotypic epidermis [2]: ERK hyper-activation; KRT10 up-regulation by immunostaining (NHEKs): suppressed their ability to up-regulate KRT10; keratinocyte cohesion in organotypic epidermis ([3]; 1 μM TG alone, 48 hours): disrupted keratinocyte cohesion most notably between basal and suprabasal cell layers; also recorded: loss of keratinocyte cohesion; also recorded: separation between basal and suprabasal layers; retention of nuclei in cornified layers ([3]; 1 μM TG alone, 48 hours): retention of nuclei in the cornified layers
O=C(NOCC1CC1)c1ccc(F)c(F)c1Nc1ccc(I)cc1Cl [PD184352]	sufficient to augment expression	sufficient to augment expression	sufficient to augment expression	did not significantly alter			
CCCS(=O)(=O)Nc1ccc(F)c(C(=O)c2c[nH]c3ncc(-c4ccc(Cl)cc4)cc23)c1F [vemurafenib]							patients in whom GD was seen [5]: 38.9%
N#CC(=C(/N)Sc1ccccc1N)/C(C#N)=C(\N)Sc1ccccc1N [U0126]	sufficient to augment expression	sufficient to augment expression	sufficient to augment expression	did not significantly alter	restored	comparably rescued cell cohesion	
COc1cccc(-c2cc(=O)c3ccccc3o2)c1N [PD98059]					restored	comparably rescued cell cohesion	resistance of keratinocyte sheets to mechanical stress (number of fragments) [7]: similarly rescued cohesion; effect on TG-induced loss of keratinocyte cohesion ([3]; 1 μM TG plus 20 μM PD98059 or 1 μM trametinib): mitigated; also recorded: improved keratinocyte cohesion; effect on TG-induced retention of nuclei in cornified layers / cornification ([3]; 1 μM TG plus 20 μM PD98059 or 1 μM trametinib, 48 hours): reduced TG-induced retention of nuclei in the cornified layers; also recorded: normalization of cornification
